Measured values as given in paper PMC7567501 (Journal of Enzyme Inhibition and Medicinal Chemistry, 2019).
Where two headings read alike, the source gives them in different places.

What was measured:
AChE = target: T1, AChE (Electrophorus electricus, UniProt O42275); test: biochemical; design: species or system Electrophorus electricus (electric eel)
T1 construct: extracted from Electrophorus electricus (electric eel); purchased Sigma-Aldrich; host or cells: Electrophorus electricus (extracted)
Method: The electronic spectra and the AChE inhibition assays were performed in a 1-cm path length quartz cell with a Perkin Elmer Lambda 35 spectrophotometer equipped with a temperature programmer PTP1 + 1 Peltier System (T = 25.0 ± 0.1 °C). The enzyme AChE 500 U, extracted from Electrophorus electricus (electric eel), was purchased from Sigma-Aldrich.
The enzymatic activity of AChE was determined using an adaptation of the Ellman’s method, as described previously[29]^,[32]. Firstly, a stock solution of AChE was prepared by dissolving enzyme 500 U in 10 mL of tris(hydroxymethyl)aminomethane (TRIS) buffer (50 mM, pH 8). Then, 4–(2-hydroxyethyl)-1-piperazineethanesulfonic acid (HEPES) buffer was used for further dilution of the enzyme solution therefore obtaining the final working solution of AChE. The assay solution consisted of 374 µL of HEPES buffer (50 mM and pH 8.0), a variable volume (10–50 µL) of the compound’s stock solution (1 mg/mL of MeOH), 476 µL of 3 mM bis(3-carboxy-4-nitrophenyl) disulphide (DTNB), 25 µL of AChE stock solution and the necessary amount of methanol to attain the same volume of sample mixture in a 1 mL cuvette. After mixing, samples were left to incubate for 15 min and then 75 µL of 16 mM acetylthiocholine iodide (AChI) solution was added and immediately the reaction was monitored at 405 nm for 5 min. Firstly, enzyme activity was determined by measuring the rate of enzymatic reaction in solution by recording absorbance (with or without enzyme) at 405 nm. To calculate the percent inhibition of AChE, the enzyme activity in the presence of increasing concentrations of the test compound, as well as for a blank reaction (methanol without compounds), were measured at 405 nm.
Where v1is the initial reaction rate in the presence of the inhibitor and v0 is the initial rate of the control reaction. The curves of inhibition were obtained using a plot of percentage of enzymatic inhibition versus inhibitor concentration, and a calibration curve was obtained from which the linear regression parameters were obtained.

SH-SY5Y cells = test: Dose-response screening for non-toxic concentrations, MTT reduction assay; format: cell-based, human; conditions: 10 µM to 40 µM, 25 h
Method: The neuroprotective effect of these new multi-target drugs designed for AD was evaluated using SH-SY5Y cells treated with Aβ1-42 peptides or ascorbate/iron. For each compound we performed a dose-response curve to select a non-toxic concentration (Figure 7).
Figure 7. Dose-response screening to select non-toxic concentrations of TAC-BF hybrids. Cells were treated with varying concentration of TAC-BF conjugates (from 10 μM to 40 μM) for 25 h and cell viability was determined using the MTT reduction assay.
SH-SY5Y human neuroblastoma cell line (ATCC-CRL-2266) is grown in Dulbecco’s modified Eagle’s medium (DMEM), and were obtained from Gibco-Invitrogen (Life Technologies Ltd, UK) with 10% heat inactivated foetal calf serum, containing 50 U/mL penicillin and 50 µg/mL streptomycin, under a humidified atmosphere of 95% air- 5% CO2 at 37 °C. Cells were plated at 0.12 × 10^6 cells/mL for cell viability assay. The tested compounds (18, 19, 20, 21, 23 and 24) were dissolved in DMSO at a concentration of 50 mM and aliquots were stored at −20 °C. We performed a dose-response screening (from 10 µM to 40 µM) in order to choose the highest non-toxic concentration. As a result we selected: 20 µM final concentrations for compounds 18, 19, 20 and 23; 20 µM final concentration for compound 19; 35 µM final concentration for compounds 21 and 24. […] The compounds were added to the cell media 1 h before the incubation with Aβ1-42 or L-ascorbic acid/ferrous sulphate. Aβ1-42 or L-ascorbic acid/ferrous sulphate where incubated alone or with the compound for an additional 24 h. Aβ1-42 was prepared as 276.9 µM stock in sterile water and added to the medium at 2.5 µM final concentration. Ferrous sulphate was freshly prepared as 0.36 M stock in water and added to the medium at 500 µM final concentration. L-Ascorbic Acid was freshly prepared as 80 mM stock in water and added to the medium at 5 mM final concentration. Aβ1-42 was purchased from Bachem (Torrance, CA, USA) and ferrous sulphate and L-ascorbic acid from Sigma Chemical Co (St. Louis, MO, USA).
Cell viability was determined by the MTT (3–(4,5-dimethylthiazol-2-yl)-2,5-diphenyltetrazolium bromide) reduction test. In viable cells, the enzyme succinate dehydrogenase metabolises MTT into a formazan that absorbs light at 570 nm. Following the cell treatment protocol, the medium was aspirated and 0.5 mL MTT (0.5 mg/mL) was added to each well. The plate was then incubated at 37 °C for 1 h 30 min protected from light. At the end of the incubation period, the formazan precipitates were solubilised with 0.5 mL of acidic isopropanol (0.04 M HCl/isopropanol). The absorbance was measured at 570 nm[51]. Cell reduction ability was expressed as a percentage of untreated control cells.

[1] = Radical scavenging (anti-oxidant) activity, DPPH method; format: physicochemical; conditions: DPPH in methanol, 30 min, room temperature
Method: A selection of the newly synthesised hybrids was tested for their radical scavenging activity (anti-oxidant activity, EC50), based on their interaction with the 2,2-diphenyl-1-picrylhydrazyl (DPPH) free radical, as previously described.
The anti-oxidant capacity or, more precisely, radical scavenging activity based on the electron and proton donation ability, was evaluated by the DPPH method previously described[29]^,[46]. To a 2.5 mL solution of DPPH (0.002%) in methanol, solutions of each compound were added in different volumes to obtain different concentrations in a 3.5 mL final volume. The samples were incubated for 30 min at room temperature. The absorbance was measured at 517 nm against the corresponding blank (methanol). The antioxidant activity was calculated by Eq. (1)^29. (1) %AA = ((ADPPH−Asample)/ADPPH) × 100
The tests were carried out in triplicate. The compound concentration providing 50% of antioxidant activity (EC50) was obtained by plotting the antioxidant activity against the compound concentration.

[2] = AChE from Electric eel, mean of five independent experiments, read-out: AChE inhibition IC50

T1 sequence (O42275 24-633): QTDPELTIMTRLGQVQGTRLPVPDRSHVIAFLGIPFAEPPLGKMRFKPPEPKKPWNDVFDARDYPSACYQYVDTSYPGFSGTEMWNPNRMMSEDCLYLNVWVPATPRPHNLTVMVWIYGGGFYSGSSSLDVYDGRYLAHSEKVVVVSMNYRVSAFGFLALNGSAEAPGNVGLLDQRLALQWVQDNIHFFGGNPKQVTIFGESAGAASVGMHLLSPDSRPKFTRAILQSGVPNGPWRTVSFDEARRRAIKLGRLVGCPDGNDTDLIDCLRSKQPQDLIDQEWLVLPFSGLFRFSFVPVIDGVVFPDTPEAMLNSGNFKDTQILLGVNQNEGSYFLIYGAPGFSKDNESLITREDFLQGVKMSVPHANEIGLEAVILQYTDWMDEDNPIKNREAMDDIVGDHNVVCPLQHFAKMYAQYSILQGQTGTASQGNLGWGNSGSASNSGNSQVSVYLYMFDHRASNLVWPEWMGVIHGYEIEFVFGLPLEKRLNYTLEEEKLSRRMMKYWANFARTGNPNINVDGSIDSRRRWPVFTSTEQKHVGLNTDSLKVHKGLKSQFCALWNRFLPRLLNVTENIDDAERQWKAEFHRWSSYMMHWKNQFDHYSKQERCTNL

Row | SMILES | IC50 (AChE; [2]) | highest non-toxic concentration selected from dose-response screening (SH-SY5Y cells) | EC50 [1] | IC50 (AChE)
1 | COc1cccc2cc(C(=O)NCCCNc3c4c(nc5cc(Cl)ccc35)CCCC4)oc12 [Compound 19, N-(3-((6-chloro-1,2,3,4-tetrahydroacridin-9-yl)amino)propyl)-7-methoxybenzofuran-2-carboxamide] | 0.13 µM | 20 µM | – | –
2 | COc1cccc2cc(C(=O)NCCCCNc3c4c(nc5cc(Cl)ccc35)CCCC4)oc12 [Compound 20, N-(4-((6-chloro-1,2,3,4-tetrahydroacridin-9-yl)amino)butyl)-7-methoxybenzofuran-2-carboxamide] | 0.67 µM | 20 µM | > 1000 µM | –
3 | O=C(NCCCNc1c2c(nc3ccccc13)CCCC2)c1cc2cccc(O)c2o1 [Compound 21, 7-Hydroxy-N-(3-((1,2,3,4-tetrahydroacridin-9-yl)amino)propyl)benzofuran-2-carboxamide] | 0.81 µM | 35 µM | 480 µM | –
4 | O=C(NCCCNc1c2c(nc3cc(Cl)ccc13)CCCC2)c1cc2cccc(O)c2o1 [Compound 23, N-(3-((6-chloro-1,2,3,4-tetrahydroacridin-9-yl)amino)propyl)-7-hydroxybenzofuran-2-carboxamide] | – | 20 µM | – | 0.13 µM
5 | O=C(NCCCCNc1c2c(nc3cc(Cl)ccc13)CCCC2)c1cc2cccc(O)c2o1 [Compound 24, N-(4-((6-chloro-1,2,3,4-tetrahydroacridin-9-yl)amino)butyl)-7-hydroxybenzofuran-2-carboxamide] | 0.61 µM | 35 µM | 434 µM | –
